The assay addresses T1, human GPR84 receptor (Homo sapiens, UniProt Q9NQS5).
T1 construct: frozen aliquots prepared by acCELLerate; host or cells: CHO-K1
Put plainly: cAMP HTRF assay for identification of cellular GPR84 antagonists. The class given is cell-based. The note with it: CHO-K1 cells stably expressing human GPR84; Forskolin + agonist 6-OAU (EC80); average or median values. The method, boiled down: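 IC50 came from 4-parameter fits over 20 μM–0.07 nM (11 points, duplicate), normalized between DMSO (0%) and agonist-free (100% inhibition) wells. Readout: cAMP-d2/Eu-cryptate HTRF in hGPR84 CHO-K1 cells given forskolin plus agonist, compound preincubated 30 min at room temperature.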

T1 sequence (Q9NQS5 whole entry): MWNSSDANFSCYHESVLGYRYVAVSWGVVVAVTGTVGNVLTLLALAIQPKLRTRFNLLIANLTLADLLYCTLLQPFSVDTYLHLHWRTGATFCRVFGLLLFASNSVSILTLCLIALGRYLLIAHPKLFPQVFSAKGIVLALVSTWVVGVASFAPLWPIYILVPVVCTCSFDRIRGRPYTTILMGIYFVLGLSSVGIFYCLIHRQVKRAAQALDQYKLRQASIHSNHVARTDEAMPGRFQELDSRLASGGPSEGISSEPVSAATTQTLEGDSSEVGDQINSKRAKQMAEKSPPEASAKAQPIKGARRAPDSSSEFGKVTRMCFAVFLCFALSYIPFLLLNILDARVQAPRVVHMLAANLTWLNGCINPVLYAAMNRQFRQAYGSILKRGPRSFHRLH

On to `Cc1c(C(=O)NC[C@@H]2COCCO2)oc2c1-c1nn(C[C@H]3COCCO3)cc1[C@H](C(F)(F)F)C2` (single isomer, unassigned) [Example 265-2, (4R or 4S)-N-{(2R)-1 ,4-dioxan-2-yl]methyl}-2-{[(2S)-1,4-dioxan-2-yl]methyl}-8-methyl-4-(trifluoromethyl)-4,5-dihydro-2H-furo[2,3-g]indazole-7-carboxamide], for which the IC50 was determined as 1210 nM.

With `Cc1c(C(=O)NC[C@@H]2COCCO2)oc2c1-c1nn(Cc3ccccn3)cc1C1(CCC1)C2` [Example 134], the IC50 is 43 nM. Take `Cc1c(C(=O)NC[C@H]2CCCO2)oc2c1-c1nn(Cc3ccccn3)cc1CC2` [Example 3-1, 8-methyl-2-(pyridin-2-ylmethyl)-N-[(2R)-tetrahydrofuran-2-ylmethyl]-4,5-dihydro-2H-furo[2,3-g]indazole-7-carboxamide]: the IC50 came to 1160 nM. Consider `C[C@@H]1Cc2oc(C(=O)NC[C@@H]3CCCO3)c(C(F)(F)F)c2-c2nn(C[C@H]3COCCO3)cc21` (single isomer, unassigned) [Example 255-2, (4R or 4S)-2-{[(2S)-1,4-dioxan-2-yl]methyl}-4-methyl-N-{[(2S)-oxolan-2-yl]methyl}-8-(trifluoromethyl)-4,5-dihydro-2H-furo[2,3-g]indazole-7-carboxamide], for which the IC50 worked out at 16 nM.

Regarding `Cc1c(C(=O)NCC2COCC(C)(C)O2)oc2c1-c1nn(Cc3ccccn3)cc1CC2` (racemic) [Example 181], the IC50 worked out at 102 nM. To `Cc1c(C(=O)Nc2ccn(C)n2)oc2c1-c1nn(Cc3ccccn3)cc1CC2` [Example 40, 8-methyl-N-(1-methyl-1H-pyrazol-3-yl)-2-(pyridin-2-ylmethyl)-4,5-dihydro-2H-furo[2,3-g]indazole-7-carboxamide] belongs 670 nM. As for `Cc1c(C(=O)NC[C@@H]2COCCO2)oc2c1-c1nn(Cc3cncnc3)cc1CC2` [Example 86, N-[(2R)-1,4-dioxan-2-ylmethyl]-8-methyl-2-(pyrimidin-5-ylmethyl)-4,5-dihydro-2H-furo[2,3-g]indazole-7-carboxamide], the IC50 was 180 nM. Take `Cc1c(C(=O)NC[C@H]2CCC3(COC3)O2)oc2c1-c1nn(C[C@H]3COCCO3)cc1C1(CC1)C2` (single isomer, unassigned) [Example 201-1]: the IC50 amounted to 683 nM. Turning to `Cc1ccc(Cn2cc3c(n2)-c2c(oc(C(=O)NC[C@@H]4COCCO4)c2C)CC3)c(C)n1` [Example 78, 2-[(2,6-dimethylpyridin-3-yl)methyl]-N-[(2R)-1,4-dioxan-2-ylmethyl]-8-methyl-4,5-dihydro-2H-furo[2,3-g]indazole-7-carboxamide], the half-maximal inhibitory concentration (IC50) was found to be 190 nM.

For `[2H]C([2H])(c1ccccc1)n1cc2c(n1)-c1c(oc(C(=O)NC[C@@H]3COCCO3)c1C)CC2` [Example 136, N-[(2R)-1,4-dioxan-2-ylmethyl]-8-methyl-2-[phenyl(^2H2)methyl]-4,5-dihydro-2H-furo[2,3-g]indazole-7-carboxamide], the IC50 was determined as 25 nM. In the case of `Cc1ccc(Cn2cc3c(n2)-c2c(oc(C(=O)NC[C@@H]4CCCO4)c2C(F)(F)F)CC32CC2)nc1` [Example 214, 2′-[(5-methylpyridin-2-yl)methyl]-N-{[(2S)-oxolan-2-yl]methyl}-8′-(trifluoromethyl)-2′,5′-dihydrospiro[cyclopropane-1,4′-furo[2,3-g]indazole]-7′-carboxamide], the IC50 amounted to 5 nM. The same measure for `Cc1c(C(=O)NC[C@@H]2COCCO2)oc2c1-c1nn(Cc3ccccn3)cc1C(C)C2` (mixture of isomers) [Example 246, (4±)-N-{[(2R)-1,4-dioxan-2-yl]methyl}-4,8-dimethyl-2-[(pyridin-2-yl)methyl]-4,5-dihydro-2H-furo[2,3-g]indazole-7-carboxamide]: 75 nM. Turning to `CC1(C)CC[C@H](CNC(=O)c2oc3c(c2C(F)(F)F)-c2nn(C[C@H]4COCCO4)cc2CC3)O1` (single isomer, unassigned) [Example 223-2, N-{[(2S or 2R)-5,5-dimethyloxolan-2-yl]methyl}-2-{[(2S)-1,4-dioxan-2-yl]methyl}-8-(trifluoromethyl)-4,5-dihydro-2H-furo[2,3-g]indazole-7-carboxamide], the concentration for half-maximal inhibition (IC50) came to 51 nM. Take `C[C@@H]1Cc2oc(C(=O)NCc3cnccn3)c(C(F)(F)F)c2-c2nn(C[C@H]3COCCO3)cc21` (single isomer, unassigned) [Example 260, (4R or 4S)-2-{[(2S)-1,4-dioxan-2-yl]methyl}-4-methyl-N-[(pyrazin-2-yl)methyl]-8-(trifluoromethyl)-4,5-dihydro-2H-furo[2,3-g]indazole-7-carboxamide]: the IC50 is 24 nM.

Take `Cc1c(C(=O)NC[C@@H]2CCCO2)oc2c1-c1nn(CC3COc4ncccc4O3)cc1CC2` (mixture of isomers) [Example 52, 2-[(2R/S)-2,3-dihydro[1,4]dioxino[2,3-b]pyridin-2-ylmethyl]-8-methyl-N-[(2S)-tetrahydrofuran-2-ylmethyl]-4,5-dihydro-2H-furo[2,3-g]indazole-7-carboxamide]: the 50% inhibitory concentration (IC50) came to 42 nM. As for `C[C@@H]1Cc2oc(C(=O)NC[C@@H]3COCCO3)c(C(F)(F)F)c2-c2nn(CC3CCN(C(=O)C4CC4)CC3)cc21` (single isomer, unassigned) [Example 291, (4R or 4S)-2-{[1-(cyclopropanecarbonyl)piperidin-4-yl]methyl}-N-{[(2R)-1,4-dioxan-2-yl]methyl}-4-methyl-8-(trifluoromethyl)-4,5-dihydro-2H-furo[2,3-g]indazole-7-carboxamide], the IC50 is 5 nM. For `Cc1c(C(=O)NCC2CCC(C)O2)oc2c1-c1nn(C[C@H]3COCCO3)cc1C1(CC1)C2` (mixture of isomers) [Example 198], the IC50 was 94 nM. In the case of `Cc1cccc(Cn2cc3c(n2)-c2c(oc(C(=O)NCc4ccn(C)n4)c2C)CC3)n1` [Example 71, 8-methyl-N-[(1-methyl-1H-pyrazol-3-yl)methyl]-2-[(6-methylpyridin-2-yl)methyl]-4,5-dihydro-2H-furo[2,3-g]indazole-7-carboxamide], the IC50 was determined as 360 nM. Consider `CC1Cc2oc(C(=O)NC[C@@H]3COCCO3)c(C(F)(F)F)c2-c2nn(C[C@H]3COCCO3)cc21` (single isomer, unassigned) [Example 254-1, (4R or 4S)-N-{[(2R)-1,4-dioxan-2-yl]methyl}-2-{[(2S)-1,4-dioxan-2-yl]methyl}-4-methyl-8-(trifluoromethyl)-4,5-dihydro-2H-furo[2,3-g]indazole-7-carboxamide], for which the half-inhibitory concentration (IC50) was found to be 10 nM. The same measure for `C[C@@H]1Cc2oc(C(=O)NCc3cocn3)c(C(F)(F)F)c2-c2nn(C[C@H]3COCCO3)cc21` (single isomer, unassigned) [Example 261, (4R or 4S)-2-{[(2S)-1,4-dioxan-2-yl]methyl}-4-methyl-N-[(1,3-oxazol-4-yl)methyl]-8-(trifluoromethyl)-4,5-dihydro-2H-furo[2,3-g]indazole-7-carboxamide]: 63 nM; for `CC1CCC(CNC(=O)c2oc3c(c2C(F)(F)F)-c2nn(C[C@H]4COCCO4)cc2CC3)O1` (mixture of isomers) [Example 224, 2-{[(2S)-1,4-dioxan-2-yl]methyl}-N-{[(2±,5±)-5-methyloxolan-2-yl]methyl}-8-(trifluoromethyl)-4,5-dihydro-2H-furo[2,3-g]indazole-7-carboxamide]: 18 nM.

The values are drawn from patent US12570666B2, “Furoindazole derivatives” (Bayer Aktiengesellschaft, priority 2019, dated 2026).
